Assay results as given in patent US20250263437A1, “POLYPEPTIDE FOR REPAIRING SKIN WOUND OR MUCOSAL INJURY, AND APPLICATION THEREOF” (Sichuan Gooddoctor Panxi Pharmaceutical Co., Ltd., priority 2021, published 2025).
Entries after “also recorded” stand apart in the source; their conditions may differ. Where no end group is shown, it is not given here.

How the values were obtained:
[1] = target: FGFR1 (Homo sapiens, UniProt P11362); assay: FGFR receptor binding assay: ultrafiltration/mass spectrometry affinity screening to FGFR1 protein target; conditions: ratio of lower-layer to upper-layer compound MS signal intensity; the greater the ratio, the stronger the affinity
Chain of FGFR1 (P11362 22-822, species assumed): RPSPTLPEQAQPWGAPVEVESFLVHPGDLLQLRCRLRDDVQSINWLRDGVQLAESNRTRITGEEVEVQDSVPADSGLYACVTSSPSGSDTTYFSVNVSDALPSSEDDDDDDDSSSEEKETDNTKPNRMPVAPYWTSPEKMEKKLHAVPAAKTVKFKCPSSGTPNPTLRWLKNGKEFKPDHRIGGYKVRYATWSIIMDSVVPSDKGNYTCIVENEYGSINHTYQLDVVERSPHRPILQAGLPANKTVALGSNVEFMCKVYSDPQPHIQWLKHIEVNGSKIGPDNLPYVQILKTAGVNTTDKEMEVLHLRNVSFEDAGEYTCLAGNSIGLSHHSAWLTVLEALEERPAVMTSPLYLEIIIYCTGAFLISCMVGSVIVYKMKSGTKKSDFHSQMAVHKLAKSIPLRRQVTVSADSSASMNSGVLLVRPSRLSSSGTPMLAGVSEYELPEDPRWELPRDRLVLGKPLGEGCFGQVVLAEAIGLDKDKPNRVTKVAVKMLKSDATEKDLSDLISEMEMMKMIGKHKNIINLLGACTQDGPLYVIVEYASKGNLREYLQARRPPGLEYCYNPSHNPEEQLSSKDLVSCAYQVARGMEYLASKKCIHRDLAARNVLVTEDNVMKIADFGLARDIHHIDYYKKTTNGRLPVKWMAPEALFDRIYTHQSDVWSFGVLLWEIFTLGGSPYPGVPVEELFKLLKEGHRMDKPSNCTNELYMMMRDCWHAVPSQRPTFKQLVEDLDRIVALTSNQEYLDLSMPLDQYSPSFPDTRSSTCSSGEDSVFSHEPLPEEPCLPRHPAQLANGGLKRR
Method: The affinity of the polypeptide compound prepared by the present invention to FGFR1 was tested by using a control FGFR1 allosteric inhibitor (product number SSR128129E from Sigma) as a positive compound control.
Screening for the affinity to FGFR1 was as follows: FGFR1 solutions with an appropriate concentration were taken, the positive compound SSR128129E (Sigma) at an appropriate concentration and sample solutions of the inventive polypeptide compounds, as freeze-dried powders, dissolved in protein buffers were then respectively added. After incubation at room temperature for 50 min, ultrafiltration and screening were carried out to obtain various treated solutions. An appropriate volume of acetonitrile was added to each treated solution to precipitate a protein, the solution was then centrifuged, and the supernatant was taken and analyzed by mass spectrometry.
Affinity screening conditions: One-dimensional liquid-phase conditions were: chromatographic column; PolyLC chromatographic column, mobile phase A: KH2PO4, NaCl, pH 7.5, mobile phase B: acetonitrile, column temperature: 8° C., flow rate: 1 mL/min, and injection volume: appropriate; and two-dimensional liquid-phase conditions were: chromatographic column: BONUS RRHD, mobile phase A: 0.1% formic acid aqueous solution, mobile phase B: 0.1% formic acid in acetonitrile, column temperature: 60° C., flow rate: 0.3 mL/min, and injection volume: 40 uL. Gradient elution was used, i.e., 98% A (0-1 min), 98-10% A (1-6 min), 10% A (6-7.5 min), 10-98% A (7.5-8 min), and 98% A (8-9.5 min). Mass spectrometry conditions: Agilent 6530 Q-Tof, ESI ion source, voltage 3.5 KV, mass-to-charge ratio scanning range m/z=200-3000, acquisition mode: positive ion scanning, ion source temperature: 350° C., solvent removal temperature: 300° C., and nitrogen flow rate: 8 L/min.

[2] = tested on: ethanol-induced gastric ulcer model in mice; assay: Anti-ulcer effect on ethanol-induced gastric ulcer model in mice; assay type: in vivo; conditions: single administration; ulcer inhibition rate of test compound / ulcer inhibition rate of Compound 1
Method: Experimental animals: Six-week old C57BL/6JGPt male mice, weighing about 20 g/mouse, were selected, with 10 mice in each group, from GemPharmatech (Chengdu) Co., Ltd., animal license number: SCXK (Chuan) 2020-034. After the experimental animals were divided into groups, they were dosed according to Table 5 one day before the experiment. Among the groups, the model group was given 200 μl of pure water, and the other dose groups were given 200 μl of drug solution. After that, all the animals were fasted for 24 h with free access to water. The next day, 1 h after administration, the mice in each group were given 9 μl/g of absolute ethanol by oral gavage for modeling. After 1 h, the animals were sacrificed by cervical dislocation, the gastric cardia was ligated, the pylorus was occluded, and the whole stomach was removed. 1 mL of 1% formaldehyde solution was injected into the gastric lumen via the glandular stomach, the cardia was ligated, and the stomach was taken out and immediately immersed in 1% formaldehyde solution. After soaking for 30 min, the stomach tissue was taken out and cut open along the greater curvature. The content of the stomach was rinsed off with normal saline, the injury of the gastric mucosa in the mice were observed and measured after being laid flat, and the ulcer index and ulcer inhibition rate were calculated; panoramic photos of the stomach were taken; and finally, the gastric tissue sample was immersed in formalin and fixed. Calculation method for ulcer index: If the length of cord-like injury was greater than 1 mm, the length thereof was measured, with 1 point per millimeter; if the width thereof was greater than 1 mm, the score thereof was doubled according to the number of millimeters of the width; and if the length was less than 1 mm, a score of 0.5 was given, and the scores were added up to obtain the ulcer index of the animal. Method of data statistics: the ulcer index was expressed as mean±standard deviation; the ulcer inhibition rate was calculated by using the median value and mean value of the ulcer index in each dosage group and simulation group; and the data were statistically analyzed by means of Excel, and the difference data of the gastric ulcer index were statistically analyzed by means of independent sample T test.

[3] = tested on: HaCaT cells; assay: Proliferation of HaCaT cells (CCK8); assay type: cell-based, human; conditions: 0.2-0.8 μg/mL; 24 h, 48 h and 72 h; 1% serum
Method: Experimental method: Immortalized human keratinocytes (HaCaT cells) was adjusted to a concentration of 1.0×10^5 to 5.0×10^5/mL for passaging, and they were cultured at 37° C. and 5% CO2 for 24-36 h for biological activity detection. The cells were digested with 0.25% trypsin for 5 min, 1640 whole blood culture medium, the volume of which was not less than 1 time of the volume of the trypsin, was added to stop digestion, a cell suspension was collected, centrifuged at 1000 RPM for 3 min, the supernatant was discarded, 2 mL of 1640 whole blood culture medium was added to suspend the cells, 20 μL of the cell suspension was taken and stained with AOPI, the concentration of cells in the suspension was then detected by a cell counter, the suspension was prepared to a concentration of 5×10^4/mL with 1640 culture medium containing serum at a concentration of 10% and inoculated into a 96-well cell culture plate, with 100 μL per well, i.e., 5000 cells/well, and the plate was cultured at 37° C. and 5% CO2 overnight.
After 24 h, the original culture medium was discarded, and 100 μL of polypeptide compound solutions with different concentrations prepared with 1640 culture medium containing serum at a concentration of 1% were added, such that the final concentrations of the polypeptide compounds to be tested were 0.2, 0.4 and 0.8 ug/mL, respectively. In addition, an EGF control group was prepared by adding 100 μL of a recombinant human epidermal growth factor (EGF) solution prepared with 1640 culture medium containing serum at a concentration of 1%, with the final concentration being 100 ng/ml. In the model control group, an equal volume of 1640 culture medium containing serum at a concentration of 1% was added. After culturing at 37° C. and 5% CO2 for 24 h, 48 h and 72 h, the proliferation of the HaCaT cell line was detected by means of CCK8 kit.

[4] = tested on: RSC96 cells; assay: Proliferation of RSC96 cells (CCK-8); assay type: cell-based; conditions: 0.2, 0.4 and 0.8 ug/ml; 48 h; 0% serum
Method: Glial cells (RSC96 cells) were adjusted to a concentration of 1.0×10^5 to 5.0×10^5/mL for passaging and cultured at 37° C. and 5% CO2 for 24-36 h for biological activity detection. The cells were digested by trypsin, collected, prepared to a concentration of 5×10^4/mL with a serum-free medium, inoculated into a 96-well cell culture plate, with 100 μL per well, i.e., 5000 cells/well, and cultured overnight at 37° C. and 5% CO2. The polypeptide compound of the present invention was prepared to test concentrations (0.2 ug/ml, 0.4 ug/ml, and 0.8 ug/ml) with 0% serum culture medium as experimental groups, and an equal amount of 0% serum drug-free culture medium was added to the control group. They were added to 4 duplicate wells, and the resultants were incubated at 37° C. and 5% CO2 for 48 h. Detection of the proliferation of cells using CCK-8: the old culture medium was removed, and a serum-free medium containing 10% CCK-8 was added to each well. After incubation in an incubator for 2 h, the absorbance at 450 nm was measured by a microplate reader.

[5] = tested on: HMEC-1 cells; assay: Proliferation of HMEC-1 cells (CCK-8); assay type: cell-based, Human; conditions: 0.05, 0.2 and 0.8 ug/mL; 48 h; 0% serum
Method: Human microvascular endothelial cells (HMEC-1 cells) were cultured in 10% serum culture medium at 37° C. and 5% CO2, the medium was replaced every 1-2 d, and the cell concentration was controlled to be 4×10^6 cells/mL for passage. Cells were collected, prepared to […] with complete culture medium, inoculated into a 96-well cell culture plate, with 100 μL per well, i.e., 5000 cells/well, and cultured at 37° C. and 5% CO2 until the cells adhered to the wall. The polypeptide compound of the present invention was prepared to test concentrations (0.05 ug/mL, 0.2 ug/mL, and 0.8 ug/mL) with 0% serum culture medium as experimental groups, a positive drug (300 ng/ml) was prepared in the same way and added as a positive control, and an equal amount of 0% serum drug-free culture medium was added to the control group. They were added to 5 duplicate wells, and the resultants were incubated at 37° C. and 5% CO2 for 48 h. Detection of the proliferation of cells using CCK-8: the old culture medium was removed, and a serum-free medium containing 10% CCK-8 was added to each well. After incubation in an incubator for 2 h, the absorbance at 450 nm was measured by a microplate reader.

Sequence	Cb/Ct range [1]	Anti-ulcer activity (mean relative ulcer inhibition rate) [2]	effect on proliferation of HaCaT cells [3]	effect on proliferation of RSC96 cells [4]	effect on proliferation of HMEC-1 cells [5]
AARLADELRAE [Compound 65]	1.0-3	1.29	proliferation-promoting effect	proliferation-promoting effect	
EINQLELIKQASI [Compound 64]	1.0-3	0.61	proliferation-promoting effect	significant proliferation promoting effects	proliferation-promoting effect
ETLQRKNKE [Compound 66]	1.0-3	0.52	proliferation-promoting effect	significant proliferation promoting effects	
HCLAGLKKDLEDLE [Compound 63]	1.0-3	1.99	proliferation-promoting effects	proliferation-promoting effect	
KFYSQSTASSSYAYPSHFGPAGFSGSHS [Compound 70]	1.0-3	0.39	proliferation-promoting effect	inhibitory effect	
VDAAMVLLTR [Compound 72]	1.0-3	1.65	proliferation-promoting effect		significant proliferation promoting effects; also recorded: proliferation-promoting effect
VDAAVIEKIE [Compound 71]	1.0-3	0.77	proliferation-promoting effect		proliferation-promoting effect
VDAAVLMLRT [Compound 73]	1.0-3	1.46	proliferation-promoting effect	proliferation-promoting effect	proliferation-promoting effect
